Publication PMC7835349 (Communications Biology, 2021)
Values joined by “and” are separate entries in the source; they are usually repeats but may differ in a detail not shown here. Identical values can stand only once.

Tests used:
[1] = Formulation dependent plasma and tumour pharmacokinetics of AZD4320 (Fig S2b); assay type: in vivo; settings: mouse, 5 mg/kg IV, 30% HPbCD
Description: Supplementary Figure 2. Formulation dependent efficacy of AZD4320 (a) A single 5mg/kg IV bolus dose of AZD4320 formulated in 30% hydroxypropyl-β-cyclodextrin (HP-β-CD) […]
Data in the graphs are represented as mean tumor volume
± SEM (n=5). Arrow indicates dosing schedule.(b) A pharmacokinetic profile from both […]
explained by differential profiles in the plasma. The plasma profiles are similar. The efficacy is consistent with the concentration profiles observed in the tumour (n=4, Tween formulation, yellow, n=8 HP-β-CD formulation, purple). Lines connect the mean values.
(1 picture or pasted object on this page, not shown here)

in vivo = settings: beagle, dog

Molecule `CN(CCO)CCC(CSc1ccccc1)Nc1ccc(S(=O)(=O)NC(=O)c2ccc(N3CCC(C(O)c4ccccc4-c4ccc(Cl)cc4)CC3)cc2)cc1S(=O)(=O)C(F)(F)F` (stereo not drawn) [AZD4320] has a concentration at 6 h ([1]; C.B-17 SCID, plasma, iv, 5 mg/kg, 6 h, study CIV-12-112) of 65 nM, a concentration at 0.5 h ([1]; C.B-17 SCID, tumour, iv, 5 mg/kg, Tumor, 0.5 h, study CIV-11-055) of 815 nM and a concentration at 1 h ([1]; C.B-17 SCID, tumour, iv, 5 mg/kg, Tumor, 1 h, study CIV-11-055) of 473 nM. The concentration at 6 h ([1]; C.B-17 SCID, tumour, iv, 5 mg/kg, Tumor, 6 h, study CIV-11-055) was 312 nM, the concentration at 6 h ([1]; C.B-17 SCID, tumour, iv, 5 mg/kg, Tumor, 6 h, study CIV-12-112) was 436 nM and the concentration at 24 h ([1]; C.B-17 SCID, tumour, iv, 5 mg/kg, Tumor, 24 h, study CIV-11-055) was 275 nM. For the same molecule, the concentration at 24 h ([1]; C.B-17 SCID, tumour, iv, 5 mg/kg, Tumor, 24 h, study CIV-12-112) was 165 nM, the Concentration ([1]; Plasma, 6 h, study CIV-12-112) was 114 nM and 108 nM and 59 nM and the Concentration ([1]; Tumor, 0.5 h, study CIV-11-055) was 750 nM and 857 nM and 503 nM. For the same molecule, the Concentration ([1]; Tumor, 1 h, study CIV-11-055) was 394 nM and 626 nM and 461 nM, the Concentration ([1]; Tumor, 6 h, study CIV-11-055) was 253 nM and 344 nM and 313 nM and the Concentration ([1]; Tumor, 6 h, study CIV-12-112) was 568 nM and 289 nM and 439 nM. For the same molecule, the Concentration ([1]; Tumor, 24 h, study CIV-11-055) was 196 nM and 164 nM and 174 nM, the Concentration ([1]; Tumor, 24 h, study CIV-12-112) was 172 nM and 93 nM and 130 nM and the MTD at 48 h (in vivo) was under 3 mg/kg.
